Data reported in patent US11026943B2, “Aminoquinoline derivatives and uses thereof” (UNIVERSITY OF DELHI, priority 2012, dated 2021).

Test: Solubility (solvent listed in compound tables)
Format: physicochemical

SOLUBILITY (solvent named, Table 3)	SOLUBILITY (solvent named, Table 4)	SMILES	other results
–	DMSO	Cc1ccc(Nc2ccnc(NCCNc3ccnc4cc(Cl)ccc34)n2)cc1 [DKG805]	–
–	DMSO	Cc1ccc(Nc2ccnc(NCCCNc3ccnc4cc(Cl)ccc34)n2)cc1 [DKG806]	–
–	DMSO	Cc1ccc(Nc2ccnc(NCCCCNc3ccnc4cc(Cl)ccc34)n2)cc1 [DKG807]	–
–	DMSO	Clc1ccc2c(NCCCCNc3nccc(Nc4ccc(Br)cc4)n3)ccnc2c1 [DKG811]	–
–	DMSO	Clc1ccc(Nc2ccnc(NCCCNc3ccnc4cc(Cl)ccc34)n2)cc1 [DKG814]	–
–	DMSO	Clc1ccc(Nc2ccnc(NCCCCNc3ccnc4cc(Cl)ccc34)n2)cc1 [DKG815]	–
–	DMSO	Fc1ccc(Nc2ccnc(NCCCNc3ccnc4cc(Cl)ccc34)n2)cc1 [DKG818]	–
–	DMSO	Fc1ccc(Nc2ccnc(NCCCCNc3ccnc4cc(Cl)ccc34)n2)cc1 [DKG819]	–
–	DMSO	COc1ccc(Nc2ccnc(NCCNc3ccnc4cc(Cl)ccc34)n2)cc1 [DKG825]	–
–	DMSO	COc1ccc(Nc2ccnc(NCCCNc3ccnc4cc(Cl)ccc34)n2)cc1 [DKG826]	–
–	DMSO	COc1ccc(Nc2ccnc(NCCCCNc3ccnc4cc(Cl)ccc34)n2)cc1 [DKG827]	–
–	DMSO	COc1cc(Nc2ccnc(NCCCCNc3ccnc4cc(Cl)ccc34)n2)cc(OC)c1 [DKG831]	–
–	DMSO	Cc1cc(Nc2ccccc2)nc(NCCNc2ccnc3cc(Cl)ccc23)n1 [DKG833]	–
–	DMSO	Cc1cc(Nc2ccccc2)nc(NCCCNc2ccnc3cc(Cl)ccc23)n1 [DKG834]	–
–	DMSO	COc1ccc(Nc2cc(C)nc(NCCCNc3ccnc4cc(Cl)ccc34)n2)cc1 [DKG838]	–
–	DMSO	COc1ccc(Nc2cc(C)nc(NCCCCNc3ccnc4cc(Cl)ccc34)n2)cc1 [DKG839]	–
–	DMSO	Cc1cc(Nc2ccc(Cl)cc2)nc(NCCCNc2ccnc3cc(Cl)ccc23)n1 [DKG846]	–
–	DMSO	Cc1cc(Nc2ccc(Cl)cc2)nc(NCCCCNc2ccnc3cc(Cl)ccc23)n1 [DKG847]	–
–	DMSO	Cc1cc(Nc2ccc(Br)cc2)nc(NCCCNc2ccnc3cc(Cl)ccc23)n1 [DKG850]	–
–	DMSO	Cc1cc(Nc2ccc(Br)cc2)nc(NCCCCNc2ccnc3cc(Cl)ccc23)n1 [DKG851]	–
–	DMSO	Cc1cc(Nc2ccc(F)cc2)nc(NCCCNc2ccnc3cc(Cl)ccc23)n1 [DKG854]	–
–	DMSO	Cc1cc(Nc2ccc(F)cc2)nc(NCCCCNc2ccnc3cc(Cl)ccc23)n1 [DKG855]	–
–	DMSO	Cc1ccc(Nc2cc(C)nc(NCCNc3ccnc4cc(Cl)ccc34)n2)cc1 [DKG857]	–
–	DMSO	Cc1ccc(Nc2cc(C)nc(NCCCNc3ccnc4cc(Cl)ccc34)n2)cc1 [DKG858]	–
–	DMSO	Cc1ccc(Nc2cc(C)nc(NCCCCNc3ccnc4cc(Cl)ccc34)n2)cc1 [DKG859]	–

More lines, now with the values behind:

SMILES	SOLUBILITY (solvent named, Table 3)	SOLUBILITY (solvent named, Table 4)	other results
COc1cc(Nc2nc(NCCNc3c4ccc(Cl)cc4nc4ccc(OC)cc34)nc(N3CCCCC3)n2)cc(OC)c1 [ATH 158]	DMSO	–	–
COc1cc(Nc2nc(NCCCNc3c4ccc(Cl)cc4nc4ccc(OC)cc34)nc(N3CCCCC3)n2)cc(OC)c1 [ATH 159]	DMSO	–	–
COc1ccc(Nc2nc(NCCNc3c4ccc(Cl)cc4nc4ccc(OC)cc34)nc(N3CCN(c4ccccc4)CC3)n2)cc1 [ATH 164]	DMSO	–	–
COc1ccc(Nc2nc(NCCNc3c4ccc(Cl)cc4nc4ccc(OC)cc34)nc(N(C)C)n2)cc1 [ATH 165]	DMSO	–	–
COc1ccc(Nc2nc(NCCCNc3c4ccc(Cl)cc4nc4ccc(OC)cc34)nc(N(C)C)n2)cc1 [ATH 166]	DMSO	–	–
COc1cc(Nc2nc(NCCNc3c4ccc(Cl)cc4nc4ccc(OC)cc34)nc(N3CCN(c4ccccc4)CC3)n2)cc(OC)c1 [ATH 170]	DMSO	–	–
COc1cc(Nc2nc(NCCCNc3c4ccc(Cl)cc4nc4ccc(OC)cc34)nc(N3CCN(c4ccccc4)CC3)n2)cc(OC)c1 [ATH 171]	DMSO	–	–
COc1ccc2nc3cc(Cl)ccc3c(NCCNc3nc(N4CCN(c5ccccc5)CC4)nc(N4CCN(c5ccccc5)CC4)n3)c2c1 [ATH 178]	DMSO	–	–
COc1ccc2nc3cc(Cl)ccc3c(CNCCNc3nc(N4CCN(c5ccccc5)CC4)nc(N4CCN(c5ccccc5)CC4)n3)c2c1 [ATH 179]	DMSO	–	–
COc1ccc(Nc2nc(NCCNc3c4ccc(Cl)cc4nc4ccc(OC)cc34)nc(N3CCOCC3)n2)cc1 [ATH 182]	DMSO	–	–
COc1ccc(Nc2nc(NCCNCc3c4ccc(Cl)cc4nc4ccc(OC)cc34)nc(N3CCOCC3)n2)cc1 [ATH 184]	DMSO	–	–
COc1ccc(Nc2nc(NCCNc3c4ccc(Cl)cc4nc4ccc(OC)cc34)nc(N3CCCCC3)n2)cc1 [ATH 189]	DMSO	–	–
COc1ccc(Nc2nc(NCCNCc3c4ccc(Cl)cc4nc4ccc(OC)cc34)nc(N3CCCCC3)n2)cc1 [ATH 191]	DMSO	–	–
COc1cc(Nc2nc(NCCNc3c4ccc(Cl)cc4nc4ccc(OC)cc34)nc(NC3CCCCC3)n2)cc(OC)c1 [ATH 192]	DMSO	–	–
COc1cc(Nc2nc(NCCNCc3c4ccc(Cl)cc4nc4ccc(OC)cc34)nc(NC3CCCCC3)n2)cc(OC)c1 [ATH 194]	DMSO	–	–
COc1ccc(Nc2nc(NCCNCc3c4ccc(Cl)cc4nc4ccc(OC)cc34)nc(N(C)C)n2)cc1 [ATH 196]	DMSO	–	–
COc1ccc(Nc2nc(NCCCNc3c4ccc(Cl)cc4nc4ccc(OC)cc34)nc(N3CCN(c4ccccc4)CC3)n2)cc1 [ATH 198]	DMSO	–	–
COc1ccc(Nc2nc(NCCNc3c4ccc(Cl)cc4nc4ccc(OC)cc34)nc(NC3CCCCC3)n2)cc1 [ATH 200]	DMSO	–	–
COc1ccc(Nc2nc(NCCCNc3c4ccc(Cl)cc4nc4ccc(OC)cc34)nc(NC3CCCCC3)n2)cc1 [ATH 201]	DMSO	–	–
COc1cc(Nc2ccnc(N3CCN(c4ccnc5cc(Cl)ccc45)CC3)n2)cc(OC)c1 [ATH 214]	DMSO	–	–
Clc1ccc2c(N3CCN(c4ccnc(Cl)n4)CC3)ccnc2c1 [ATH 218]	DMSO	–	–
COc1ccc(Nc2ccnc(N3CCN(c4ccnc5cc(Cl)ccc45)CC3)n2)cc1 [ATH 220]	DMSO	–	–
Fc1ccc(Nc2ccnc(N3CCN(c4ccnc5cc(Cl)ccc45)CC3)n2)cc1 [ATH 223]	DMSO	–	–
Clc1ccc2c(N3CCN(c4nccc(Nc5ccc(Br)cc5)n4)CC3)ccnc2c1 [ATH 226]	DMSO	–	–
Clc1ccc(Nc2ccnc(N3CCN(c4ccnc5cc(Cl)ccc45)CC3)n2)cc1 [ATH 227]	DMSO	–	–

SMILES	SOLUBILITY (solvent named, Table 3)	SOLUBILITY (solvent named, Table 4)	other results
Clc1ccc2c(N3CCN(c4ccnc(N5CCOCC5)n4)CC3)ccnc2c1 [ATH 228]	DMSO	–	–
Clc1ccc2c(N3CCN(c4ccnc(N5CCCCC5)n4)CC3)ccnc2c1 [ATH 231]	DMSO	–	–
Clc1ccc2c(N3CCN(c4nccc(Nc5ccccc5)n4)CC3)ccnc2c1 [ATH 232]	DMSO	–	–
Clc1ccc2c(N3CCN(c4ccnc(NC5CCCCC5)n4)CC3)ccnc2c1 [ATH 236]	DMSO	–	–
Cc1cc(N2CCN(c3ccnc4cc(Cl)ccc34)CC2)nc(Cl)n1 [ATH 237]	DMSO	–	–
Cc1cc(N2CCN(c3ccnc4cc(Cl)ccc34)CC2)nc(N2CCOCC2)n1 [ATH 239]	DMSO	–	–
Cc1cc(N2CCN(c3ccnc4cc(Cl)ccc34)CC2)nc(N2CCCCC2)n1 [ATH 240]	DMSO	–	–
Cc1cc(N2CCN(c3ccnc4cc(Cl)ccc34)CC2)nc(NC2CCCCC2)n1 [ATH 241]	DMSO	–	–
COc1cc(Nc2cc(C)nc(N3CCN(c4ccnc5cc(Cl)ccc45)CC3)n2)cc(OC)c1 [ATH 244]	DMSO	–	–
COc1ccc(Nc2cc(C)nc(N3CCN(c4ccnc5cc(Cl)ccc45)CC3)n2)cc1 [ATH 245]	DMSO	–	–
Cc1cc(Nc2ccc(F)cc2)nc(N2CCN(c3ccnc4cc(Cl)ccc34)CC2)n1 [ATH 247]	DMSO	–	–
Clc1ccc2c(N3CCN(c4ccnc(N5CCCC5)n4)CC3)ccnc2c1 [ATH 252]	DMSO	–	–
OCCNc1nccc(N2CCN(c3ccnc4cc(Cl)ccc34)CC2)n1 [ATH 254]	DMSO	–	–
OCCCNc1nccc(N2CCN(c3ccnc4cc(Cl)ccc34)CC2)n1 [ATH 255]	DMSO	–	–
Cc1cc(N2CCN(c3ccnc4cc(Cl)ccc34)CC2)nc(N2CCCC2)n1 [ATH 256]	DMSO	–	–
Clc1ccc2c(NCCNc3nccc(Nc4ccc(Br)cc4)n3)ccnc2c1 [DKG809]	–	DMSO	–
Clc1ccc2c(NCCCNc3nccc(Nc4ccc(Br)cc4)n3)ccnc2c1 [DKG810]	–	DMSO	–
Clc1ccc(Nc2ccnc(NCCNc3ccnc4cc(Cl)ccc34)n2)cc1 [DKG813]	–	DMSO	–
Fc1ccc(Nc2ccnc(NCCNc3ccnc4cc(Cl)ccc34)n2)cc1 [DKG817]	–	DMSO	–
Clc1ccc2c(NCCNc3nccc(Nc4ccccc4)n3)ccnc2c1 [DKG821]	–	DMSO	–
Clc1ccc2c(NCCCNc3nccc(Nc4ccccc4)n3)ccnc2c1 [DKG822]	–	DMSO	–
Clc1ccc2c(NCCCCNc3nccc(Nc4ccccc4)n3)ccnc2c1 [DKG823]	–	DMSO	–
COc1cc(Nc2ccnc(NCCCNc3ccnc4cc(Cl)ccc34)n2)cc(OC)c1 [DKG830]	–	DMSO	–
OCCCNc1nccc(NCCCNc2ccnc3cc(Cl)ccc23)n1 [MT1-121]	–	–	SOLUBILITY (solvents listed for the compound): MeOH, DMSO
